This note sets out measurements from ChEMBL document CHEMBL3991601, “The target landscape of clinical kinase drugs” (Science, 2017).

Assay [1] concerns the target Atypical kinase COQ8A, mitochondrial (Homo sapiens, UniProt Q8NI60).
Assay [2] addresses Mitogen-activated protein kinase kinase kinase kinase 4 (Homo sapiens, UniProt O95819).
Assay [3] concerns the target T1, Mitogen-activated protein kinase 15 (Homo sapiens, UniProt Q8TD08).
T1 sequence (Q8TD08 whole entry): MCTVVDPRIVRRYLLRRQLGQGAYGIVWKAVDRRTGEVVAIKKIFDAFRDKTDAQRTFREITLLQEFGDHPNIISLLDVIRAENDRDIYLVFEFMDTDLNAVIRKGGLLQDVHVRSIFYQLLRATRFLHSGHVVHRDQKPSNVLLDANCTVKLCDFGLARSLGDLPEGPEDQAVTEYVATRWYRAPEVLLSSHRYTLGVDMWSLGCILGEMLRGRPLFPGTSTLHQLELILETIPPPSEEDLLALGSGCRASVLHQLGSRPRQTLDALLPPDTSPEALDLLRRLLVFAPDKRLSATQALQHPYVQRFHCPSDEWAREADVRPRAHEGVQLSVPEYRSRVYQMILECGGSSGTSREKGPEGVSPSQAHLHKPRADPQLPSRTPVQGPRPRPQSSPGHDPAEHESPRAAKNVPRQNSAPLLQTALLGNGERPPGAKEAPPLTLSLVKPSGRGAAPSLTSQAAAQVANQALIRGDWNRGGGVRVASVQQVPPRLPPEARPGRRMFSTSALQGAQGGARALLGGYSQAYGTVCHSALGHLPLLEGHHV

In assay [4] the target is Fibroblast growth factor receptor 1 (Homo sapiens, UniProt P11362).
Assay [5] has as its target T2, Mitogen-activated protein kinase kinase kinase 5 (Homo sapiens, UniProt Q99683).
T2 sequence (Q99683 whole entry): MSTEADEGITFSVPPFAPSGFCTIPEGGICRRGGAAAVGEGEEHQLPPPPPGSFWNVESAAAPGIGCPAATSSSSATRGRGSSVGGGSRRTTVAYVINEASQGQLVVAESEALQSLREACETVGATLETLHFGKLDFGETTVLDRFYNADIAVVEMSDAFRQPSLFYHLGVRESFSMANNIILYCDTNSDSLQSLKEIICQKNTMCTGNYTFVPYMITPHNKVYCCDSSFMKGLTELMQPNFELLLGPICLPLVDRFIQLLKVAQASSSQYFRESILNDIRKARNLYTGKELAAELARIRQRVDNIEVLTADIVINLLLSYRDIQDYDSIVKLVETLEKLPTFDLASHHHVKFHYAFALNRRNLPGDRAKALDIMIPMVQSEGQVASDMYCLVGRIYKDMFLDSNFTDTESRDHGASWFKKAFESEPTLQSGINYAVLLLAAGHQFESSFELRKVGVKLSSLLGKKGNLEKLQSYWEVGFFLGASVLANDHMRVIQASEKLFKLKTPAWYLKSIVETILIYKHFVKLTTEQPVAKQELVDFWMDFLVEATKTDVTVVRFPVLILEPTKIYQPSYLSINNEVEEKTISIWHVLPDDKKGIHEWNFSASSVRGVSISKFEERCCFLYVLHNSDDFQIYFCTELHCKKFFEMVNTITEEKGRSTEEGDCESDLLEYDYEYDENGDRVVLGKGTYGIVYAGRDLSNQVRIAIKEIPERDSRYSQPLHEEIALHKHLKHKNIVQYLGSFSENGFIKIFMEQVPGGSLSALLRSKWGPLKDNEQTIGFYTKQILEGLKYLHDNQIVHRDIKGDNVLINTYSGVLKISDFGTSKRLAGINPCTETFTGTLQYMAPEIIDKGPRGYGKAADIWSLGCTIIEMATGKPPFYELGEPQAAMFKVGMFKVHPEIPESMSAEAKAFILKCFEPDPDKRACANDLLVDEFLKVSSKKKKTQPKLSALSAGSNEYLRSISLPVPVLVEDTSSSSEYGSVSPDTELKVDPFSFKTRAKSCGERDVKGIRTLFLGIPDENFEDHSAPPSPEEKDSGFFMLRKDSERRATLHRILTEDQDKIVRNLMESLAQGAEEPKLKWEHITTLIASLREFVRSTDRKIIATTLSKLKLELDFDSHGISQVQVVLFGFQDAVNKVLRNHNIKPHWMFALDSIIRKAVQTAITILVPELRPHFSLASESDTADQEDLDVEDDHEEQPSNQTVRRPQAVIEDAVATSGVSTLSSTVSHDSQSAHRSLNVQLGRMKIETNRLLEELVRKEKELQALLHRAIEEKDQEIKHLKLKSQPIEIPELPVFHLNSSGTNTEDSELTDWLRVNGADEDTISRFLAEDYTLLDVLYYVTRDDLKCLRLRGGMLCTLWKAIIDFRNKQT

Assay [6] has as its target Tyrosine-protein kinase HCK (Homo sapiens, UniProt P08631).
The target of assay [7] is T3, Discoidin domain-containing receptor 2 (Homo sapiens, UniProt Q16832).
T3 sequence (Q16832 whole entry): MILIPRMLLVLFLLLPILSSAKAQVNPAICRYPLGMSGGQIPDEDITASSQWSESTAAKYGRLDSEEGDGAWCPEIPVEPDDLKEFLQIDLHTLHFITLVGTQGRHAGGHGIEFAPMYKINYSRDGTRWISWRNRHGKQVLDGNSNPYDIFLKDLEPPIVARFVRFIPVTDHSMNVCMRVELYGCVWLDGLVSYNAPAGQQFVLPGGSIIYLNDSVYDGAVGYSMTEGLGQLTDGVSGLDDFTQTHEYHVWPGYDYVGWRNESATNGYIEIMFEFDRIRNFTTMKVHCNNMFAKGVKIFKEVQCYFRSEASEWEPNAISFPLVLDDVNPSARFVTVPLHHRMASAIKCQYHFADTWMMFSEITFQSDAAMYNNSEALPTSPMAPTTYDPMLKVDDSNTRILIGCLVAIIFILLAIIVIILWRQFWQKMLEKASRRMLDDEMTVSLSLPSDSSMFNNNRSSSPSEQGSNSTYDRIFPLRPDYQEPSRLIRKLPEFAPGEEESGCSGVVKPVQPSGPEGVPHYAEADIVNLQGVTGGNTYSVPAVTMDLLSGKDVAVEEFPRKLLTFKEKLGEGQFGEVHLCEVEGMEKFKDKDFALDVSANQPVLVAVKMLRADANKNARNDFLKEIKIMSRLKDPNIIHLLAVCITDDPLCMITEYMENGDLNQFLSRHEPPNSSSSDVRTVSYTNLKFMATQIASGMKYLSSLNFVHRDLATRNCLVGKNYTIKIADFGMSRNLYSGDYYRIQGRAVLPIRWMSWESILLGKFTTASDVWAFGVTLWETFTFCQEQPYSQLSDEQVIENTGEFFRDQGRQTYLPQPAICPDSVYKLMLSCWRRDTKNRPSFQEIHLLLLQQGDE

Assay [8] has as its target AP2-associated protein kinase 1 (Homo sapiens, UniProt Q2M2I8).

Molecules are shown by their SMILES. Calls of active or inactive are those of the source. For most assays here, no stated cut-off is given here; in the data, actives have a measured Kd and inactives only a lower limit.

Chain of Mitogen-activated protein kinase kinase kinase kinase 4 (O95819 whole entry): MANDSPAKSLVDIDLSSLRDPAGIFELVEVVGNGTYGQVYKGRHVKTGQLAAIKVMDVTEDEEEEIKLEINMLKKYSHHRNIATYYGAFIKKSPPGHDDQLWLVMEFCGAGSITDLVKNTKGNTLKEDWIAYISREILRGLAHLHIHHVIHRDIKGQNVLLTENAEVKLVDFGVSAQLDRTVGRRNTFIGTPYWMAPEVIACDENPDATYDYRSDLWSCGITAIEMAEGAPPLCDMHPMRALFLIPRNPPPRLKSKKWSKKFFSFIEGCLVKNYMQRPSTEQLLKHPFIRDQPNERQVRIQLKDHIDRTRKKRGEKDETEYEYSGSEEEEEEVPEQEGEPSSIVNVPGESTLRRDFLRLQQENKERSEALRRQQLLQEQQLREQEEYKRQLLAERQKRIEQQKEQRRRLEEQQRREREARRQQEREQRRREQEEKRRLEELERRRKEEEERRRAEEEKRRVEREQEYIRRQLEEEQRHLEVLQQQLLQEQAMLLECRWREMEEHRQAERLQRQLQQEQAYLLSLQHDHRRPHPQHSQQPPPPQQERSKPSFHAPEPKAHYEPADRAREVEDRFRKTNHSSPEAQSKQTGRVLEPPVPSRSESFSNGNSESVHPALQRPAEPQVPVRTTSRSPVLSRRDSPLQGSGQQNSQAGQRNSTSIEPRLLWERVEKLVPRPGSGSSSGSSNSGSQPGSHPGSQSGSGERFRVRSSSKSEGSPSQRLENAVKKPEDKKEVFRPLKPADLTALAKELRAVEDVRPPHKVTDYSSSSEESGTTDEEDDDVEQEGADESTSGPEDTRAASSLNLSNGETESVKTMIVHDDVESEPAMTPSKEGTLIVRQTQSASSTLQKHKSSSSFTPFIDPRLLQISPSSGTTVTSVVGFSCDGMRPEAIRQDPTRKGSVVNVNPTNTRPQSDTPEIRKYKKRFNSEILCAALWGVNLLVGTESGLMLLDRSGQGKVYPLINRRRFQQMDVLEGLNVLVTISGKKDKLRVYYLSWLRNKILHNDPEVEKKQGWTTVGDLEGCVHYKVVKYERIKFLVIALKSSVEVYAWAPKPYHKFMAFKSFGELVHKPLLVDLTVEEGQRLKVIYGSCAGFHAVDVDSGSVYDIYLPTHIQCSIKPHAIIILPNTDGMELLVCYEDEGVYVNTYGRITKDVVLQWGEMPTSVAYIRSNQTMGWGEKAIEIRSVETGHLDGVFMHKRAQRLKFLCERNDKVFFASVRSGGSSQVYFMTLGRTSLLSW
Chain of Atypical kinase COQ8A, mitochondrial (Q8NI60 whole entry): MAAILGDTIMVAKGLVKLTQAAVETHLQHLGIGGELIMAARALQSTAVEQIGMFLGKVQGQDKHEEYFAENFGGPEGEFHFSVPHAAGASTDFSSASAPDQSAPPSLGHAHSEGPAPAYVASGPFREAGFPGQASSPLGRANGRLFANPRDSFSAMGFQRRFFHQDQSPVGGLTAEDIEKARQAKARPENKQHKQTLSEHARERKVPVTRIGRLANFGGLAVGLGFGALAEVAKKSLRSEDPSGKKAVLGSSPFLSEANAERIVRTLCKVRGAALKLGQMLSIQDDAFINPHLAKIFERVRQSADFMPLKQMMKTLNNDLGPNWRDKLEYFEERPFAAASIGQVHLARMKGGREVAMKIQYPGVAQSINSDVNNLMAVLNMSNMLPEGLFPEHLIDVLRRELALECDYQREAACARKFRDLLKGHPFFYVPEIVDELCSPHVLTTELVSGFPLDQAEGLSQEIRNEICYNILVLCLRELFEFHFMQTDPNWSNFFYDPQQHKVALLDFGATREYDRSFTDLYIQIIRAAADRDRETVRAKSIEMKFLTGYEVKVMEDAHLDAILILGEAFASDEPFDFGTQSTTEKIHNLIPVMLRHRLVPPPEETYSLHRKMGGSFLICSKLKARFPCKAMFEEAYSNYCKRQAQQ
Chain of AP2-associated protein kinase 1 (Q2M2I8 whole entry): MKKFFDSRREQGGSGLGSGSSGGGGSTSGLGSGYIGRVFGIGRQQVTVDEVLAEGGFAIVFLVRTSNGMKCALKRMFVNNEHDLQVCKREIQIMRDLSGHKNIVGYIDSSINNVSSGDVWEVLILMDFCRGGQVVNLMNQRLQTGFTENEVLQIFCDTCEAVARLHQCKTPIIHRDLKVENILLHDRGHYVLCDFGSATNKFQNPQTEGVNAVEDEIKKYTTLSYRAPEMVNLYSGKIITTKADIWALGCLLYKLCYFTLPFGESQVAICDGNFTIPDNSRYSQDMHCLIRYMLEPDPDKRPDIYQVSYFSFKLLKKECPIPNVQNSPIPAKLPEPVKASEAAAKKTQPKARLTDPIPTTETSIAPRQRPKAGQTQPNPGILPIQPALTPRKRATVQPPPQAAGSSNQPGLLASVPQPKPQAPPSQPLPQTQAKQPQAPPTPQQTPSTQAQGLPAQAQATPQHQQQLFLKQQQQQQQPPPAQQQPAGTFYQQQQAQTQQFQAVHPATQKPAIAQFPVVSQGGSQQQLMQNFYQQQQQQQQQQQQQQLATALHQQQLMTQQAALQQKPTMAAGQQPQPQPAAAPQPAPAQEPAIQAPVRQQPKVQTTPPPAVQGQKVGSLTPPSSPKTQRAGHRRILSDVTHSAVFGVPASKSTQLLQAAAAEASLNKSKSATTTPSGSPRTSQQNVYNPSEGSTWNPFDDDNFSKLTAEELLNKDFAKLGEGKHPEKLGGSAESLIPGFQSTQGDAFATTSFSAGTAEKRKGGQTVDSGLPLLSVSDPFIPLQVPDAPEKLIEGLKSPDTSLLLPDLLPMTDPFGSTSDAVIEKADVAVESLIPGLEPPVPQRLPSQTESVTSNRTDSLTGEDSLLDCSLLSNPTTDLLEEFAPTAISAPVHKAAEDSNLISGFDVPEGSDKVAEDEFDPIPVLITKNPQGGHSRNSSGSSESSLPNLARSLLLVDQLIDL
Chain of Fibroblast growth factor receptor 1 (P11362 whole entry): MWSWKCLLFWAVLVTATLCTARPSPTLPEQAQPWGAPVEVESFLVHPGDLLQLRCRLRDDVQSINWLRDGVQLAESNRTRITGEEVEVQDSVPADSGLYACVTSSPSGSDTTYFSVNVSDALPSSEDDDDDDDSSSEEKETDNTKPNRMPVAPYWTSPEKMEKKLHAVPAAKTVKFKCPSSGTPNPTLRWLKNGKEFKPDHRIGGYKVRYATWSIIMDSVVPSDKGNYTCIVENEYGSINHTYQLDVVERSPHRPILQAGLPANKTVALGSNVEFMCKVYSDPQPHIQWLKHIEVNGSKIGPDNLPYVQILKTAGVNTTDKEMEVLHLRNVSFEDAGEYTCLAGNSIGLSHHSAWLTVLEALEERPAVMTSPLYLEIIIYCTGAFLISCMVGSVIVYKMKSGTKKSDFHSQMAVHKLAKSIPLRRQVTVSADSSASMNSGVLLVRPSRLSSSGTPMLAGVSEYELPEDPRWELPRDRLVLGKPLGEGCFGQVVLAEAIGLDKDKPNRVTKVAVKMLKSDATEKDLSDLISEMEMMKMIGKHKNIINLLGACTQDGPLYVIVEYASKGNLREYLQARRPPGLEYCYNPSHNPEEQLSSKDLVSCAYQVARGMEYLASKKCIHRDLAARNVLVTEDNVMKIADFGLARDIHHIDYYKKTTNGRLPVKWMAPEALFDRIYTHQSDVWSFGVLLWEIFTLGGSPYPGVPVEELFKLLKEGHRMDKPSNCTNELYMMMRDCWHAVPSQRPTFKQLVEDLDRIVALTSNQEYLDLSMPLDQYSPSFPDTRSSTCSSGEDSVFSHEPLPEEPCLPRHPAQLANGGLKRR
Chain of Tyrosine-protein kinase HCK (P08631 whole entry, the tested form may be a part): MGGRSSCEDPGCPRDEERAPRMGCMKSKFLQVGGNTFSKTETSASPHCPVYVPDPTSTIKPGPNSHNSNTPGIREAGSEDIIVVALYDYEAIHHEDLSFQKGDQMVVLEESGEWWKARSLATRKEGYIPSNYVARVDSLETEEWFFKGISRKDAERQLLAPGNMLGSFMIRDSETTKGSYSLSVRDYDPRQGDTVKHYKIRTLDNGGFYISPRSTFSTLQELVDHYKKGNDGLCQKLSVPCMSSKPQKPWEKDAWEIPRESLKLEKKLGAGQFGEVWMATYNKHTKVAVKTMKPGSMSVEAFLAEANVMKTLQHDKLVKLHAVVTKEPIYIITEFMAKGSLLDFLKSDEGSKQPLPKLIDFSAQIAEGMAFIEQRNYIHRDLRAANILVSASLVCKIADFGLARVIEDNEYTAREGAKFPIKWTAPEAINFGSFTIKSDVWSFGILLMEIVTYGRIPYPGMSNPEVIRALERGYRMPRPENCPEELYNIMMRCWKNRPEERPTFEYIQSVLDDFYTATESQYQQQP

In the case of `CC[C@@H]1C(=O)N(C)c2cnc(Nc3ccc(C(=O)N[C@H]4CC[C@H](N5CCN(CC6CC6)CC5)CC4)cc3OC)nc2N1C(C)C` [VOLASERTIB], the Kd in assay [1], in assay [2], in assay [3], in assay [4], in assay [5] and in assay [6] was > 30 µM (inactive) throughout. Moreover, the Kd in assay [7] and in assay [8] was > 30 µM (inactive) throughout.

Turning to `Cc1ccc(S(=O)(=O)Nc2nc3ccccc3nc2Nc2ccc3nsnc3c2)cc1`, the Kd in assay [1], in assay [2], in assay [3], in assay [4], in assay [5] and in assay [6] was > 30 µM (inactive) throughout. Besides, the Kd in assay [7] and in assay [8] was > 30 µM (inactive) each time.

For the compound `Cn1cc(-c2ccc(F)c(C(F)(F)F)c2)nc1C1CCN(c2ncnc3[nH]ncc23)CC1` [LY-2584702], the Kd in assay [1], in assay [2], in assay [3], in assay [4], in assay [5] and in assay [6] was > 30 µM (inactive) each time. The Kd in assay [7] and in assay [8] was > 30 µM (inactive) throughout.

On to `COc1cc(OC)c(/C=C/S(=O)(=O)Cc2ccc(OC)c(NCC(=O)O)c2)c(OC)c1` [RIGOSERTIB], for which the Kd in assay [1], in assay [2], in assay [3], in assay [4], in assay [5] and in assay [6] was > 30 µM (inactive) each time. Also, the Kd in assay [7] and in assay [8] was > 30 µM (inactive) in each case.

Consider `CCn1c(=O)c(-c2cc[nH]n2)cc2c(C)nc(N)nc21` [VOXTALISIB], for which the Kd in assay [1], in assay [2], in assay [3], in assay [4], in assay [5] and in assay [6] was > 30 µM (inactive) in each case. Besides, the Kd in assay [7] and in assay [8] was > 30 µM (inactive) each time.

For `OCCn1cc(-c2cnc3nnn(Cc4ccc5ncccc5c4)c3n2)cn1` [PF-04217903], the Kd in assay [1], in assay [3], in assay [5], in assay [6], in assay [7] and in assay [8] was > 30 µM (inactive) in each case.

`Cc1cc(Nc2cc(N3CCN(C)CC3)nc(/C=C/c3ccccc3)n2)n[nH]1` [ENMD-2076]: the Kd is > 30 µM (inactive) in assay [1]; > 30 µM (inactive) in assay [3]; > 30 µM (inactive) in assay [5]; > 30 µM (inactive) in assay [6]; 3.42 µM (active) in assay [7].

Regarding `COc1cc(CCc2cc(NC(=O)c3ccc(N4C[C@@H](C)N[C@@H](C)C4)cc3)n[nH]2)cc(OC)c1` [AZD-4547], the Kd in assay [1] is > 30 µM (inactive); in assay [2] it was > 30 µM (inactive); in assay [3], > 30 µM (inactive); in assay [5], > 30 µM (inactive); in assay [6], > 30 µM (inactive); in assay [7], 12.9 µM (active). Moreover, in assay [8], the Kd is > 30 µM (inactive).

In the case of `O=C(Nc1cccc(Cl)c1)Nc1ncc(CCNc2ncnc3ccsc23)s1` [SNS-314], the Kd in assay [1] was > 30 µM (inactive); in assay [3], > 30 µM (inactive); in assay [5] it was > 30 µM (inactive); in assay [6], > 30 µM (inactive); in assay [7], 0.423 µM (active); in assay [8], > 30 µM (inactive).

In the case of `CCc1cnn2c(NCc3ccc[n+]([O-])c3)cc(N3CCCC[C@H]3CCO)nc12` [DINACICLIB], the Kd in assay [1], in assay [3], in assay [5], in assay [6], in assay [7] and in assay [8] was > 30 µM (inactive) each time.

For the compound `COc1cc2nccc(Oc3ccc(NC(=O)Nc4cc(C)on4)c(Cl)c3)c2cc1OC` [TIVOZANIB], the Kd is > 30 µM (inactive) in assay [1]; > 30 µM (inactive) in assay [2]; > 30 µM (inactive) in assay [5]; > 30 µM (inactive) in assay [6]; 0.592 µM (active) in assay [7]; > 30 µM (inactive) in assay [8].

As to `Cc1nc(N)sc1-c1ccnc(Nc2ccc(N3CCOCC3)cc2)n1` [CYC-116], the Kd is 65.3 µM (active) in assay [1], > 30 µM (inactive) in assay [3], > 30 µM (inactive) in assay [7] and 0.006 µM (active) in assay [8].

As to `CNC(=O)c1cc(Oc2ccc(NC(=O)Nc3ccc(Cl)c(C(F)(F)F)c3)c(F)c2)ccn1` [REGORAFENIB], the Kd was > 30 µM (inactive) in assay [1]; > 30 µM (inactive) in assay [2]; > 30 µM (inactive) in assay [3]; > 30 µM (inactive) in assay [5]; > 30 µM (inactive) in assay [6]; 0.421 µM (active) in assay [7]. In assay [8], the Kd is > 30 µM (inactive).

For orientation: Kd means the constant that tells how readily two partners part at equilibrium.
